{
  "source": "patent US11912755B2",
  "about": "“Endostatin fragments and variants for use in treating fibrosis” (iBio, Inc., priority 2015, dated 2024)",
  "key": {"[1]": {"system": "human primary lung fibroblasts", "assay": "Western blot of FN, Col1α1 and α-SMA in primary lung fibroblasts", "assay_type": "cell-based", "method": "Primary Fibroblast Culture. Human primary lung and skin fibroblasts were cultured. The explanted lungs of normal organ donors, patients with SSc or IPF, and clinically involved skin of SSc patients, a morphea patient and healthy donors were used for primary fibroblast culture. Approximately 2-cm pieces of peripheral lung and skin were minced and fibroblasts were cultured in Dulbecco's modified Eagle's medium (DMEM; Mediatech, Herndon, Va.) supplemented with 10% FBS, penicillin, streptomycin, and anti-mycotic agent, as previously described (Feghali et al., Arthritis Rheum 1999; 42:1451-7). All the cells were used between passages 3-6.\nWestern Blot Analysis. Cellular lysates were obtained from cultured fibroblasts as previously described (Pilewski et al., Am J Pathol 2005; 166:399-407). Briefly, 2.0×10^5 primary fibroblasts were cultured in 35-mm wells in 0.5% FBS-containing medium supplemented with 10 ng/ml of human recombinant TGF-β or PBS as vehicle control for 24 h, […] In some experiments, endostatin peptides were used without TGF-β stimulation. Cellular lysates were analyzed by Western blot. Signals were detected following incubation with horseradish peroxidase-conjugated secondary antibody and chemiluminescence (Perkin Elmer Life Sciences, Inc., Boston, Mass.). The intensity of individual bands with expected molecular sizes was semi-quantitatively analyzed using the image/J® software available at on the Internet (/rsb.info.nih.gov/ij/index.html), and normalized to individual GAPDH intensity."}, "[2]": {"system": "bleomycin induced dermal fibrosis", "assay": "Bleomycin-induced dermal fibrosis in mouse skin", "assay_type": "in vivo", "conditions": "single administration of E4 10 μg/ml on first day, daily bleomycin; skin harvested after 10 days", "method": "FIGS. 8A-8B. The effect of endostatin E-4 on bleomycin induced dermal fibrosis in vivo. FIG. 8A: Mice were injected subcutaneously with 1×PBS as vehicle (V) or Bleomycin (Bleo; 20 μg/mouse) daily. E-4 (10 μg/ml) was mixed with bleomycin on the first day, and daily bleomycin administration was continued without subsequent injections of E4 (Bleo+E-4). Skin was harvested after 10 days. Sections were stained with H&E. Magnification, 100×. Data represent three independent experiments. Mann-Whitney U test was used for statistical analysis. * P<0.001, **P<0.00001.\nE4, a peptide representing the carboxy terminus of human endostatin, can attenuate fibrosis triggered by multiple fibrogenic factors. The anti-fibrotic effects of E4 can be detected whether administered concomitantly with or following the fibrogenic trigger. The efficacy of E4 was confirmed in […] pre-clinical models of fibrosis: a) bleomycin-induced dermal fibrosis in vivo in mouse skin, b) TGF-β induced dermal fibrosis in mouse skin, and c) bleomycin-induced pulmonary fibrosis. […]\nFor these studies, fibrosis was assessed by measurement of dermal thickness on H&E skin sections (skin), assessment of collagen levels by Masson Trichrome staining (skin and lung), and measurement of collagen levels by Sircol assay (lung). […] Results were assessed using the unpaired t test and the 3-way ANOVA (for the ID1 data)."}, "lysyl oxidase (LOX) [3]": {"system": "lysyl oxidase (LOX)", "assay": "LOX immunohistochemistry in lung sections of bleomycin-treated mice", "assay_type": "in vivo, mouse", "conditions": "bleomycin with or without E4", "source_text": "FIG. 12. […] Lung sections of mice treated with BLM with or without E4 were used in immunohistochemistry to detect LOX. The sections shown are control IgG, phosphate buffered saline, bleomycin and bleomycin followed by treatment with E4."}, "ID1": {"system": "ID1", "assay": "Real-time PCR of ID1 mRNA in primary human lung fibroblasts", "assay_type": "cell-based", "method": "FIG. 15. […] Real-time PCR analysis was performed to determine the ID1 mRNA levels under the indicated conditions."}, "Egr-1": {"system": "Egr-1", "assay": "Western blot of Egr-1 in primary human lung fibroblasts", "assay_type": "cell-based", "conditions": "harvested after 24 hours", "method": "FIG. 16. […] Reduction of Egr-1 levels parallels that of collagen, SMA, and fibronectin. Lane 1: vehicle (DMSO); Lane 2: E4; Lane 3: TGFβ, Lane 4 TGFβ followed by E4 after 60 minutes. The samples were harvested after 24 hours.\nIn addition, E4 increases levels of inhibitor of differentiation (ID)-1, a transcription factor that inhibits TGF-β effects (see FIG. 15). It was determined in a Western blot analysis that E4 reduces the levels of the master switch transcription factor, Egr-1 (see FIG. 16) in primary human lung fibroblasts, treated and harvested after 24 hours. The reduction of Egr-1 levels parallels a reduction in collagen, SMA and fibronectin. Egr-1 is known to mediate the effects of several fibrotic agents (including TGF-β and bleomycin)."}, "CTGF": {"system": "CTGF", "assay": "Genes regulated by E4: CTGF", "assay_type": "cell-based", "conditions": "primary human fibroblasts treated with bleomycin or TGF-β; RT-qPCR", "method": "(§1) Several experiments have been performed to identify the mechanisms by which E4 exerts its anti-fibrotic activity. Real-time quantitative PCR (qPCR)-based arrays were performed on RNA extracted from primary human lung fibroblasts or mouse lung tissue stimulated with various fibrotic triggers in the absence and presence of E4 treatment in order to identify genes influenced by the endostatin peptide.\n(§2) The arrays identified several genes that have been previously implicated in fibrosis to be influenced by E4 treatment. These genes included connective tissue growth factor (CTGF), insulin-like growth factor binding protein (IGFBP)-3, matrix metalloproteases (MMP)-1 and MMP-3, urokinase plasminogen activator (uPA), plasminogen activator inhibitor (PAI)-1, and hepatocyte growth factor (HGF) with levels either decreased or increased in the presence of E4 as shown in TABLE 5."}, "HGF": {"system": "HGF", "assay": "Genes regulated by E4: HGF", "assay_type": "cell-based, human", "conditions": "HuF-T and mouse bleomycin model of pulmonary fibrosis; RT-qPCR, protein expression", "method": "as §1, §2"}, "MMP-3": {"system": "MMP-3", "assay": "Genes regulated by E4: MMP-3", "assay_type": "cell-based, human", "conditions": "HuF-T; RT-qPCR, protein expression levels, zymography", "method": "as §1, §2"}, "human skin explants": {"system": "human skin explants", "conditions": "single dose concurrently with TGF-β; cited from earlier work"}, "lysyl oxidase (LOX) [4]": {"system": "lysyl oxidase (LOX)", "conditions": "Yamaguchi et al. 2012; cited from earlier work"}, "[5]": {"conditions": "IPF fibroblasts, 5, 10 and 20 μg/ml, vs vehicle control"}},
  "note": "“Also recorded” adds a separate entry of the source. Ends that are not written are not given here.",
  "data": [
    {"substance": "E4: SEQ ID NO: 21, amino acids 133-180 of human endostatin with a C-terminal amide (SYCETWRTEAPSATGQASSLLGGRLLGQSAASCHHAYIVLCIENSFMT-NH2; cysteine pairing not given here)", "values": [
      {"measurement": "Col1α1 levels", "setting": "[1]; [5]", "result": "dose-dependently reduced"},
      {"measurement": "FN levels", "setting": "[1]; [5]", "result": "modest effect"},
      {"measurement": "FN and Col1α1 levels", "setting": "[1]; fibrotic (IPF) lung fibroblasts, absence of TGF-β stimulation", "result": "decreased"},
      {"measurement": "FN and Col1α1 levels", "setting": "[1]; normal human lung fibroblasts, TGF-β 24 h, then 5 μg/ml for 48 h", "result": "significantly suppressed"},
      {"measurement": "TGF-β-induced α-SMA levels", "setting": "[1]; normal lung fibroblasts", "result": "decreased"},
      {"measurement": "bleomycin induced dermal fibrosis", "setting": "[2]", "result": "significant attenuation"},
      {"measurement": "LOX levels in lung", "setting": "lysyl oxidase (LOX) [3]", "result": "reduces levels; also recorded: reducing levels"},
      {"measurement": "ID1 levels", "setting": "ID1", "result": "increases; also recorded: inducing expression"},
      {"measurement": "Egr-1 levels", "setting": "Egr-1", "result": "reduces"},
      {"measurement": "Egr-1 levels", "setting": "Egr-1; listed as E-4", "result": "reducing levels"},
      {"measurement": "Effect of E4 peptide on CTGF", "setting": "CTGF", "result": "reduces; also recorded: Decrease"},
      {"measurement": "Effect of E4 peptide on HGF", "setting": "HGF", "result": "induces conversion of pro-HGF to its active chains; also recorded: Increase"},
      {"measurement": "Effect of E4 peptide on MMP-3", "setting": "MMP-3", "result": "increased levels and activity; also recorded: Increase"},
      {"measurement": "collagen increase", "setting": "human skin explants", "result": "skin thickness and attenuated"},
      {"measurement": "skin thickness", "setting": "human skin explants", "result": "TGF-β, significantly decreased"},
      {"measurement": "levels of lysyl oxidase (LOX)", "setting": "lysyl oxidase (LOX) [4]", "result": "reduces"}
    ]}
  ]
}
